Patent publication US7223424B2, “Compositions and methods for prostate and kidney health and disorders, an herbal preparation” (Integrated Chinese Medicine Holdings, Ltd., priority 2001, dated 2007)

Test system: person with enlarged prostate
Assay: Case report: person with enlarged prostate and frequent urination
Type: in vivo, human
Settings: prescribed for enlarged prostate
From the text: Person diagnosed with having an enlarged prostate suffered from frequent-urination problems including increased daily frequency and reduced volume. They had the urge to urinate every two hours and the amount was only a few drops. Their symptoms were attributed to old age. […] They are able to urinate what they consider a normal amount of urine in a steady stream as opposed to the dribbling they experienced prior to taking the 9-herb composition. […] Because they are sleeping better, they have more energy throughout the day.

CC(C)(C)NC(=O)[C@H]1CC[C@H]2[C@@H]3CC[C@H]4NC(=O)C=C[C@]4(C)[C@H]3CC[C@]12C [PROSCAR]
urination problem: did not alleviate the urination problem
